Measured values reported in patent publication US6808930B1, “Therapeutic agents” (priority 1997, dated 2004).

System: L1210, A549 and HRTEC nuclei
Experiment: DNA fragmentation in isolated nuclei
Type: cell-based
Conditions: L1210 and A549 nuclei incubated with Ca2+ inhibitors
Protocol: Nuclei were purified from L1210, A549 and HRTEC cells and incubated with low concentrations of MAL (0.2 and 0.4 mg/ml). The formation of HMW and oligonucleosome length DNA fragments was examined.
A549, L1210 and HRTEC nuclei were isolated from homogenised cells. Pellet 1 from the homogenisation was washed twice in nuclei buffer for 20 min at 100×g and suspended in nuclei buffer for experiments. Rat liver nuclei was isolated.
A549, L1210 or HRTEC nuclei in suspension were placed in individual wells in a 24-well plate ([…]), mixed with MAL, α-lactalbumin, lactoferrin or BSA (100 μl in nucleus buffer), incubated at 37° C. for 1 hour (L1210,) or 2 hours (A549 and HRTEC), harvested by aspiration, analysed for DNA fragmentation as described above.

SMILES	effect on MAL induced DNA fragmentation
CC(=O)OCOC(=O)CN(CC(=O)OCOC(C)=O)c1ccccc1OCCOc1ccccc1N(CC(=O)OCOC(C)=O)CC(=O)OCOC(C)=O [BAPTA/AM, reference compound]	completely blocked the DNA fragmentation
O=C(O)CN(CCN(CC(=O)O)CC(=O)O)CC(=O)O [EDTA, reference compound]	completely blocked the DNA fragmentation
